Reference: ChEMBL document CHEMBL3507680, “University of Dundee, Gates Library screen for HepG2 cell viability”

Assay: Human HepG2 cell viability assay in 384 well format
Format: toxicity, cell-based
Design: dose 125 nL, time 70.5 hour; concentration not given beside the values
Details: HepG2 cells, read-out: Inhibition

Structure (SMILES) | cytotoxicity at 70.5 h
CC(C)C(C(=O)N1CCC(Nc2cccnn2)CC1)n1cncn1 (centres undefined) | -11.9%
Cc1nc(N2CCN(C(=O)c3ccc(O)cc3)CC2)c2cnn(C)c2n1 | -18.5%
CN(Cc1nnc(-c2ccco2)o1)C1CCCN(c2cccnn2)C1 (centres undefined) | 36.8%
CCOc1c(Cl)cccc1NCc1cc(C)on1 | 6.44%
Cc1ccc(S(=O)(=O)N2CCOc3ccccc32)cc1C(=O)O | -1.56%
COc1ccc(CNCc2ccnc(N3CCOCC3)c2)cc1OC | -10.1%
CCc1ccc(O)c(C(=O)NC2CCN(S(=O)(=O)CC)CC2)c1 | 8.84%
CCc1ccc(O)c(C(=O)NC2CCN(Cc3ccncc3)CC2)c1 | 17.7%
CN(C)c1cc(CNC(=O)Nc2ccc(S(C)(=O)=O)nc2)ccn1 | -15.4%
CN1CCOC(CNC(=O)CCCOc2ccccc2F)C1 (centres undefined) | -15.3%
Cc1nn(C)c(N(C)C)c1CNCCNS(C)(=O)=O | -7.58%
CN1CCOC(CNC(=O)CCCOCCc2ccccc2)C1 (centres undefined) | -14.2%
Cc1cnn(C2CCCN(C(=O)c3sccc3-n3cnnn3)C2)c1 (centres undefined) | -2.63%
Cc1nn(-c2ccccc2)c(C)c1CNC1CCc2ncnn2C1 (centres undefined) | 1.33%
Cc1nc(-c2nnc[nH]2)sc1C(=O)N(Cc1cccnc1)C1CC1 | 9.64%
Cc1ccc(NC(=O)C2CSCN2C(=O)c2cnccn2)c(C)c1 (centres undefined) | -5.93%
Cc1ccc(NC(=O)C2CSCN2C(=O)c2cnn(C)c2)c(C)c1 (centres undefined) | -4.99%
Cc1c(F)cc(C(=O)O)cc1S(=O)(=O)Nc1ccc2c(c1)OCCO2 | -2.52%
c1cc(-c2noc(CN3CCn4c(nnc4C4CC4)C3)n2)co1 | -0.323%
Cc1cc(OCC(=O)NS(=O)(=O)c2c(C)noc2C)ccc1Cl | -7.45%

Structure (SMILES) | cytotoxicity at 70.5 h
CC(C)(C)c1nnc(CN2CCCC(Cn3cncn3)C2)o1 (centres undefined) | -5.42%
Cc1n[nH]c(C)c1C1COCCN1C(=O)c1ccccc1 (centres undefined) | -8.5%
COc1ccc(CNCc2ccnc(N3CCCCC3)c2)cc1OC | -4.98%
Cn1cnc2c1CCN(Cc1csc(-c3ccsc3)n1)C2 | 20.4%
Cc1noc(C2CCN(C(=O)CCc3nccs3)CC2)n1 | 21.5%
CC(C)n1ccnc1CN1CCCN(C(=O)c2cccnc2O)CC1 | 23.5%
CCc1nc(C2CCCN2CCc2ccccn2)no1 (centres undefined) | 24.9%
COc1cccc(-n2nnc(C(=O)N3CCN(C)CC3C)c2C)c1 (centres undefined) | 56.4%
Cc1noc(C2CCN(C(=O)CCNc3ncccn3)CC2)n1 | -1.06%
CC(C)c1nc(CC(=O)N2CCCC(n3cncn3)C2)cs1 (centres undefined) | 2.88%
CNC(=O)COc1ccccc1CNC1CCc2ncnn2C1 (centres undefined) | 29.2%
CC(C)n1ccnc1CN1CCCN(C(=O)c2nccnc2N)CC1 | -16.3%
O=C(NCCn1ccnc1)N1CCCC1c1ccsc1 (centres undefined) | -4.3%
O=C(c1cc(C2CC2)on1)N1CCCC(n2cncn2)C1 (centres undefined) | 30.6%
O=C(Cc1cn2ccsc2n1)N1CCCC(n2cncn2)C1 (centres undefined) | 0.86%
O=C(Nc1cccc2c1CCCC2)C1CCCN1c1nccs1 (centres undefined) | 2.35%
O=C(c1ccc(OCC2CC2)nc1)N1CCCC(n2ccnc2)C1 (centres undefined) | -14.6%
CC1COCCN1C(=O)c1cccc(OCc2cscn2)c1 (centres undefined) | -8.23%
O=C(NCC1CCOC1)Nc1ccc(OCC(F)(F)F)nc1 (centres undefined) | -10.7%
Cc1ccc(Oc2ccc(NC(=O)NCC3CCOC3)cn2)cc1C (centres undefined) | 4.23%

Structure (SMILES) | cytotoxicity at 70.5 h
COCC(C)N(C)C(=O)c1nc(S(C)(=O)=O)n2ccccc12 (centres undefined) | -0.102%
Cc1ccc(C(=O)N2CCN(CCc3cccs3)CC2)c(=O)[nH]1 | -8.54%
Cc1cc(C2CCCN2Cc2ccn(C)c(=O)c2)no1 (centres undefined) | -1.78%
Cn1ccc(CN2CCC(NC(=O)Cc3ccccc3)CC2)cc1=O | 2.35%
Cc1cnn(C2CCCN(C(=O)c3cc(C4CC4)on3)C2)c1 (centres undefined) | -4.84%
Cc1ccc(-c2nc(CN3CCc4c(ncn4C)C3)cs2)o1 | 36.9%
O=C(c1cc(C2CC2)[nH]n1)N1CCCC(n2cncn2)C1 (centres undefined) | -0.297%
O=C1NCc2ccc(NC(=O)C3CCCN3c3nccs3)cc21 (centres undefined) | -9.24%
CS(=O)(=O)NCC1CCCN(C(=O)COc2ccc(F)cc2)C1 (centres undefined) | -15.8%
NC(=O)CN1CCC(NC(=O)Nc2nccs2)CC1 | 21.5%
O=C(Nc1nnc(C2CC2)s1)NC1CCN(Cc2ccccc2)C1 (centres undefined) | -28%
Cc1cccc(N2CCN(C(=O)Nc3cnn(CC(N)=O)c3)CC2)c1 | -18.1%
Cc1noc(C2CCN(C(=O)c3ccc(NC4CC4)nc3)CC2)n1 | -10.2%
Cc1ccc(C(CNC(=O)NCc2cc[nH]n2)N2CCOCC2)o1 (centres undefined) | -14.3%
NC(=O)Cn1cc(NC(=O)N2CCCC2)cn1 | -29.6%
Cn1cnc2c1CCN(Cc1cccc(OCC(N)=O)c1)C2 | -9.69%
Cc1cc(CN2CCCC2Cn2cncn2)no1 (centres undefined) | 26.7%
COc1ccc(CNCC2CCN(CC(C)O)CC2)c2ccccc12 (centres undefined) | 29.8%
CCn1ccnc1CN1CCCN(C(=O)c2cc(Cl)c[nH]2)CC1 | -12.8%
